Reference: patent US20180055032A1, “ODORS FOR PSYLLID TRAPPING, REPELLING AND CONTROL” (The Regents of the University of California, priority 2011, published 2018)

Tests used:
Type in all cases: cell-based, Diaphorina citri
Conditions in all cases: Table 1; odor diluted to 1%, 50 μL in cartridge
[1] = system: neuron 4A (rhinarial plate on flagellomere 4); assay: single-sensillum electrophysiology, odor response of neuron 4A
[2] = system: neuron 6A (rhinarial plate on flagellomere 6); assay: single-sensillum electrophysiology, odor response of neuron 6A
[3] = system: neuron 2C (rhinarial plate on flagellomere 2); assay: single-sensillum electrophysiology, odor response of neuron 2C
[4] = system: neuron 6C (rhinarial plate on flagellomere 6); assay: single-sensillum electrophysiology, odor response of neuron 6C
[5] = system: neuron 4C (rhinarial plate on flagellomere 4); assay: single-sensillum electrophysiology, odor response of neuron 4C
[6] = system: neuron 4B (rhinarial plate on flagellomere 4)
[7] = system: neuron 2A (rhinarial plate on flagellomere 2); assay: single-sensillum electrophysiology, odor response of neuron 2A; also: key: 0, no response; +, >50 spikes/second; ++, >100 spikes/second; +++, >150 spikes/second
[8] = system: neuron 7C (rhinarial plate on flagellomere 7); assay: single-sensillum electrophysiology, odor response of neuron 7C
[9] = system: neuron 7A (rhinarial plate on flagellomere 7); assay: single-sensillum electrophysiology, odor response of neuron 7A; also: key: 0, no response; +, >50 spikes/second; ++, >100 spikes/second; +++, >150 spikes/second
[10] = system: neuron 7B (rhinarial plate on flagellomere 7)
[11] = system: neuron 6B (rhinarial plate on flagellomere 6); assay: single-sensillum electrophysiology, odor response of neuron 6B
[12] = system: neuron 2B (rhinarial plate on flagellomere 2); assay: single-sensillum electrophysiology, odor response of neuron 2B

In the case of (−)-limonene, the “odor response (frequency of action potentials during stimulus minus baseline), 4A” value [1] is reported as 0, the “odor response (frequency of action potentials during stimulus minus baseline), 6A” value [2] is reported as 0 and the “odor response (frequency of action potentials during stimulus minus baseline), 2C” value [3] is reported as 0. For the same compound, the “odor response (frequency of action potentials during stimulus minus baseline), 6C” value [4] was 0, the “odor response (frequency of action potentials during stimulus minus baseline), 4C” value [5] was 0 and the “odor response (frequency of action potentials during stimulus minus baseline), 4B” value [6] was “+ (+, >50 spikes/second)”. The “odor response (frequency of action potentials during stimulus minus baseline), 2A” value [7] was 0, the “odor response (frequency of action potentials during stimulus minus baseline), 7C” value [8] was 0 and the “odor response (frequency of action potentials during stimulus minus baseline), 7A” value [9] was 0. For the same compound, the “odor response (frequency of action potentials during stimulus minus baseline), 7B” value [10] was 0, the “odor response (frequency of action potentials during stimulus minus baseline), 6B” value [11] was “+ (+, >50 spikes/second)” and the “odor response (frequency of action potentials during stimulus minus baseline), 2B” value [12] was 0.

In the case of `CC/C=C\CC=O` [Z3-hexenal], the “odor response (frequency of action potentials during stimulus minus baseline), 4A” value [1] is reported as “++ (++, >100 spikes/second)”, the “odor response (frequency of action potentials during stimulus minus baseline), 6A” value [2] is reported as “++ (++, >100 spikes/second)” and the “odor response (frequency of action potentials during stimulus minus baseline), 2C” value [3] is reported as 0. The “odor response (frequency of action potentials during stimulus minus baseline), 6C” value [4] was 0, the “odor response (frequency of action potentials during stimulus minus baseline), 4C” value [5] was 0 and the “odor response (frequency of action potentials during stimulus minus baseline), 4B” value [6] was 0. The “odor response (frequency of action potentials during stimulus minus baseline), 2A” value [7] was 0, the “odor response (frequency of action potentials during stimulus minus baseline), 7C” value [8] was 0 and the “odor response (frequency of action potentials during stimulus minus baseline), 7A” value [9] was 0. The “odor response (frequency of action potentials during stimulus minus baseline), 7B” value [10] was “+ (+, >50 spikes/second)”, the “odor response (frequency of action potentials during stimulus minus baseline), 6B” value [11] was 0 and the “odor response (frequency of action potentials during stimulus minus baseline), 2B” value [12] was 0.

In the case of `CC1=CCC(C(C)C)=CC1` [γ-terpinene], the “odor response (frequency of action potentials during stimulus minus baseline), 4A” value [1] is reported as 0, the “odor response (frequency of action potentials during stimulus minus baseline), 6A” value [2] is reported as 0 and the “odor response (frequency of action potentials during stimulus minus baseline), 2C” value [3] is reported as 0. For the same compound, the “odor response (frequency of action potentials during stimulus minus baseline), 6C” value [4] was 0, the “odor response (frequency of action potentials during stimulus minus baseline), 4C” value [5] was 0 and the “odor response (frequency of action potentials during stimulus minus baseline), 4B” value [6] was “+++ (+++, >150 spikes/second)”. The “odor response (frequency of action potentials during stimulus minus baseline), 2A” value [7] was 0, the “odor response (frequency of action potentials during stimulus minus baseline), 7C” value [8] was 0 and the “odor response (frequency of action potentials during stimulus minus baseline), 7A” value [9] was 0. The “odor response (frequency of action potentials during stimulus minus baseline), 7B” value [10] was 0, the “odor response (frequency of action potentials during stimulus minus baseline), 6B” value [11] was “++ (++, >100 spikes/second)” and the “odor response (frequency of action potentials during stimulus minus baseline), 2B” value [12] was 0.

For `C=C/C(C)=C/CC=C(C)C` [E-β-Ocimene], the “odor response (frequency of action potentials during stimulus minus baseline), 4A” value [1] was 0, the “odor response (frequency of action potentials during stimulus minus baseline), 6A” value [2] was 0 and the “odor response (frequency of action potentials during stimulus minus baseline), 2C” value [3] was “++ (++, >100 spikes/second)”. The “odor response (frequency of action potentials during stimulus minus baseline), 6C” value [4] was 0, the “odor response (frequency of action potentials during stimulus minus baseline), 4C” value [5] was 0 and the “odor response (frequency of action potentials during stimulus minus baseline), 4B” value [6] was 0. For the same compound, the “odor response (frequency of action potentials during stimulus minus baseline), 2A” value [7] was 0, the “odor response (frequency of action potentials during stimulus minus baseline), 7C” value [8] was 0 and the “odor response (frequency of action potentials during stimulus minus baseline), 7A” value [9] was 0. The “odor response (frequency of action potentials during stimulus minus baseline), 7B” value [10] was 0, the “odor response (frequency of action potentials during stimulus minus baseline), 6B” value [11] was 0 and the “odor response (frequency of action potentials during stimulus minus baseline), 2B” value [12] was 0.

`CCCCCCCC=O` [octanal] was tested, and the “odor response (frequency of action potentials during stimulus minus baseline), 4A” value [1] was “+ (+, >50 spikes/second)”, the “odor response (frequency of action potentials during stimulus minus baseline), 6A” value [2] was “+ (+, >50 spikes/second)” and the “odor response (frequency of action potentials during stimulus minus baseline), 2C” value [3] was 0. For the same compound, the “odor response (frequency of action potentials during stimulus minus baseline), 6C” value [4] was “+ (+, >50 spikes/second)”, the “odor response (frequency of action potentials during stimulus minus baseline), 4C” value [5] was “+ (+, >50 spikes/second)” and the “odor response (frequency of action potentials during stimulus minus baseline), 4B” value [6] was 0. The “odor response (frequency of action potentials during stimulus minus baseline), 2A” value [7] was 0, the “odor response (frequency of action potentials during stimulus minus baseline), 7C” value [8] was 0 and the “odor response (frequency of action potentials during stimulus minus baseline), 7A” value [9] was 0. The “odor response (frequency of action potentials during stimulus minus baseline), 7B” value [10] was “++ (++, >100 spikes/second)”, the “odor response (frequency of action potentials during stimulus minus baseline), 6B” value [11] was 0 and the “odor response (frequency of action potentials during stimulus minus baseline), 2B” value [12] was “+ (+, >50 spikes/second)”.

With `CC(C)=CCCC(C)CC=O` (stereo not drawn) [citronellal] the “odor response (frequency of action potentials during stimulus minus baseline), 4A” value [1] was 0, the “odor response (frequency of action potentials during stimulus minus baseline), 6A” value [2] was 0 and the “odor response (frequency of action potentials during stimulus minus baseline), 2C” value [3] was “+ (+, >50 spikes/second)”. The “odor response (frequency of action potentials during stimulus minus baseline), 6C” value [4] was 0, the “odor response (frequency of action potentials during stimulus minus baseline), 4C” value [5] was 0 and the “odor response (frequency of action potentials during stimulus minus baseline), 4B” value [6] was 0. The “odor response (frequency of action potentials during stimulus minus baseline), 2A” value [7] was 0, the “odor response (frequency of action potentials during stimulus minus baseline), 7C” value [8] was 0 and the “odor response (frequency of action potentials during stimulus minus baseline), 7A” value [9] was 0. For the same compound, the “odor response (frequency of action potentials during stimulus minus baseline), 7B” value [10] was 0, the “odor response (frequency of action potentials during stimulus minus baseline), 6B” value [11] was 0 and the “odor response (frequency of action potentials during stimulus minus baseline), 2B” value [12] was 0.

In the case of `C=CC(=C)CCC=C(C)C` [myrcene], the “odor response (frequency of action potentials during stimulus minus baseline), 4A” value [1] is reported as 0, the “odor response (frequency of action potentials during stimulus minus baseline), 6A” value [2] is reported as 0 and the “odor response (frequency of action potentials during stimulus minus baseline), 2C” value [3] is reported as “++ (++, >100 spikes/second)”. The “odor response (frequency of action potentials during stimulus minus baseline), 6C” value [4] was 0, the “odor response (frequency of action potentials during stimulus minus baseline), 4C” value [5] was 0 and the “odor response (frequency of action potentials during stimulus minus baseline), 4B” value [6] was “+ (+, >50 spikes/second)”. For the same compound, the “odor response (frequency of action potentials during stimulus minus baseline), 2A” value [7] was 0, the “odor response (frequency of action potentials during stimulus minus baseline), 7C” value [8] was 0 and the “odor response (frequency of action potentials during stimulus minus baseline), 7A” value [9] was 0. The “odor response (frequency of action potentials during stimulus minus baseline), 7B” value [10] was 0, the “odor response (frequency of action potentials during stimulus minus baseline), 6B” value [11] was “+ (+, >50 spikes/second)” and the “odor response (frequency of action potentials during stimulus minus baseline), 2B” value [12] was 0.

With `Cc1ccc(C(C)C)cc1` [p-cymene] the “odor response (frequency of action potentials during stimulus minus baseline), 4A” value [1] was 0, the “odor response (frequency of action potentials during stimulus minus baseline), 6A” value [2] was 0 and the “odor response (frequency of action potentials during stimulus minus baseline), 2C” value [3] was 0. For the same compound, the “odor response (frequency of action potentials during stimulus minus baseline), 6C” value [4] was 0, the “odor response (frequency of action potentials during stimulus minus baseline), 4C” value [5] was 0 and the “odor response (frequency of action potentials during stimulus minus baseline), 4B” value [6] was “+++ (+++, >150 spikes/second)”. The “odor response (frequency of action potentials during stimulus minus baseline), 2A” value [7] was 0, the “odor response (frequency of action potentials during stimulus minus baseline), 7C” value [8] was 0 and the “odor response (frequency of action potentials during stimulus minus baseline), 7A” value [9] was 0. The “odor response (frequency of action potentials during stimulus minus baseline), 7B” value [10] was 0, the “odor response (frequency of action potentials during stimulus minus baseline), 6B” value [11] was “++ (++, >100 spikes/second)” and the “odor response (frequency of action potentials during stimulus minus baseline), 2B” value [12] was 0.

In the case of `O=CCc1ccccc1` [phenylacetaldehyde], the “odor response (frequency of action potentials during stimulus minus baseline), 4A” value [1] is reported as 0, the “odor response (frequency of action potentials during stimulus minus baseline), 6A” value [2] is reported as 0 and the “odor response (frequency of action potentials during stimulus minus baseline), 2C” value [3] is reported as 0. For the same compound, the “odor response (frequency of action potentials during stimulus minus baseline), 6C” value [4] was 0, the “odor response (frequency of action potentials during stimulus minus baseline), 4C” value [5] was 0 and the “odor response (frequency of action potentials during stimulus minus baseline), 4B” value [6] was “+ (+, >50 spikes/second)”. For the same compound, the “odor response (frequency of action potentials during stimulus minus baseline), 2A” value [7] was 0, the “odor response (frequency of action potentials during stimulus minus baseline), 7C” value [8] was 0 and the “odor response (frequency of action potentials during stimulus minus baseline), 7A” value [9] was 0. The “odor response (frequency of action potentials during stimulus minus baseline), 7B” value [10] was 0, the “odor response (frequency of action potentials during stimulus minus baseline), 6B” value [11] was “+ (+, >50 spikes/second)” and the “odor response (frequency of action potentials during stimulus minus baseline), 2B” value [12] was 0.
